Assay results taken from US5358945A, “Pyrimidine compound and pharmaceutically acceptable salts thereof” (Mitsui Petrochemical Industries, Ltd., priority 1990, dated 1994).

Assays:
[1] = system: mouse; assay: Acute toxicity in mouse (Table 10); format: in vivo
Description: The acute toxicity of the compounds of the invention was examined by the following method.
Male ddy-strain 5-week old mice, 4-6 per group, were used as experimental animals. Each of the compounds was dissolved or suspended in saline and administered perorally (p.o.) or intraperitoneally (i.p.), and the toxicity of the compound was assessed 24 hours after the administration.

[2] = system: Mouse neuroblastoma cells NS-20Y; assay: Neurite appearance in mouse neuroblastoma NS-20Y cells (Table 8); format: cell-based;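 also: cells grown in polyornithine-coated dishes, with timing counted from the start of culture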
[3] = system: Mouse neuro 2a cells; assay: Neurite outgrowth of mouse neuroblastoma neuro 2a cells (Table 7); format: cell-based; conditions: mean ± S.D.
Description: The biological activities in vitro of the compounds of formula (I) on cells of the nervous system were tested. The cells tested were mouse neuroblastoma cell line neuro-2a (Dainippon Pharmaceutical Co., Ltd.) which have been established as the cells of the nervous system. The above nerve cells were grown in an incubator at 37° C. in the presence of 5% carbon dioxide gas exponentially, and the cultured for a certain period of time together with the compounds of formula (I).
The effects of the compounds of this invention on neuroblastoma cells were examined by the following method.
Mouse neuro 2a cells in the logarithmic growth period in the Dulbecco's modified Eagle's medium [DMEM, containing 100 units/ml of penicillin G sodium and 100 micrograms/ml of streptomycin sulfate] containing 10% of FCS were seeded in a 48-well plate so that the number of cells was 1,000 cells/well, and cultured for one day in 0.25 ml of the culture fluid in each well in an incubator containing 5% of carbon dioxide gas in air at 37° C. The medium was replaced by a medium containing each antibiotics and FCS and the cells were further cultured for 24 hours. Then, a 4% aqueous glutaraldehyde solution in the same amount as a medium (0.25 ml) was added, and the culture was left to stand at room temperature for 2 hours to fix the cells. After washing with water, a 0.05% aqueous solution of methylene blue was added to stain the cells. Under a microscope, the number of cells containing outgrown neurites (cells having at least one neurite with a length of at least two times as large as the long diameter of the cell) was counted visually, and the proportion of these cells in the entire cells was calculated. The well was observed over 5 or more visual fields (at least 2% of the entire surface area of the well) continuous to the left and right from a mark put at the center of the well, and more than 200 cells was counted. One drug compound was used in 6 different concentrations at most, and three runs were conducted for each concentration.

[4] = i.p., 24 hours after administration

Row | SMILES | Estimated LD50 [1, 4] [mg/kg] | The number of cells in which neurites appeared/Total number of cells ([2]; 24 hour, 0.2 mM) | The number of cells in which neurites appeared/Total number of cells ([2]; 24 hour, 0.5 mM) | The number of cells in which neurites appeared/Total number of cells ([2]; 48 hour, 0.2 mM) | The number of cells in which neurites appeared/Total number of cells ([2]; 48 hour, 0.5 mM) | Ratio of the number of cells having neurites with a length of at least two times as large as the diameter of cells to the total number of cells ([3]; 0.01 mM) [%] | Ratio of the number of cells having neurites with a length of at least two times as large as the diameter of cells to the total number of cells ([3]; 0.1 mM) [%] | Ratio of the number of cells having neurites with a length of at least two times as large as the diameter of cells to the total number of cells ([3]; 0.3 mM) [%] | Ratio of the number of cells having neurites with a length of at least two times as large as the diameter of cells to the total number of cells ([3]; 1 mM) [%] | Ratio of the number of cells having neurites with a length of at least two times as large as the diameter of cells to the total number of cells ([3]; 0.03 mM) [%] | The number of cells in which neurites appeared/Total number of cells ([2]; 24 hour, 0.1 mM) | The number of cells in which neurites appeared/Total number of cells ([2]; 48 hour, 0.1 mM) | Estimated LD50 ([1]; in vivo, ip) [mg/kg]
1 | O=C1CCCN1c1ccnc(N2CCNCC2)n1 [Compound 384] | > 500 | 10/50 | 14/50 | 10/50 | 17/50 | 4.1 ± 1.5 | 5.1 ± 2.1 | 8.3 ± 2.7 | 11.5 ± 1.3 | – | – | – | –
2 | CN(C)c1nccc(N2CCCC2=O)n1 [Compound 432] | > 500 | – | 6/50 | 7/50 | 8/50 | – | 4.2 ± 1.7 | – | 5.1 ± 1.2 | 4.0 ± 2.2 | – | – | –
3 | CN(C(=O)c1ccc(C(F)(F)F)cc1)c1ccnc(N2CCC(c3ccccc3)CC2)n1.Cc1ccc(S(=O)(=O)O)cc1 [Compound 112, 4-(N-methyl-4-trifluoromethylbenzoylamino)-2-(4-phenylpiperidino) pyrimidine p-toluenesulfonate] | > 1000 | – | – | – | – | – | 43.3 ± 1.8 | 21.6 ± 3.3 | 10.0 ± 3.8 | 5.9 ± 0.9 | 3/50 | 2/50 | –
4 | CN(C(=O)c1ccc(C#N)cc1)c1ccnc(N2CCC(c3ccccc3)CC2)n1 [Compound 128] | > 1000 | – | 3/50 | – | – | – | 4.3 ± 1.6 | 4.8 ± 1.2 | – | – | – | 4/50 | –
5 | CC1CCCN(c2nccc(N3CCCC3=O)n2)C1 (stereo not shown) [Compound 336] | – | – | – | – | – | – | 5.7 ± 1.6 | 21.3 ± 3.0 | 21.2 ± 1.6 | 4.0 ± 1.0 | 3/50 | 5/50 | 250 to 500
6 | CN(C(=O)c1ccc2c(c1)C(=O)OC2=O)c1ccnc(N2CCC(c3ccccc3)CC2)n1 [Compound 168] | – | 3/50 | – | – | 3/50 | – | – | 8.7 ± 2.0 | 14.6 ± 3.7 | – | – | – | > 1000
7 | CN(C(=O)c1ccc(S(=O)(=O)F)cc1)c1ccnc(N2CCC(c3ccccc3)CC2)n1 [Compound 136] | > 1000 | – | 4/50 | 3/50 | – | – | 5.4 ± 1.7 | 10.3 ± 0.2 | 11.8 ± 1.4 | 5.2 ± 1.8 | – | – | –
8 | O=C1CCCN1c1ccnc(N2CCSCC2)n1 [Compound 400] | > 500 | 8/50 | 9/50 | 11/50 | 13/50 | – | 6.3 ± 0.7 | 11.2 ± 1.5 | 12.1 ± 1.4 | 5.0 ± 0.1 | – | – | –
9 | O=C1CCCN1c1ccnc(N2CCN(Cc3ccccc3)CC2)n1 [Compound 424] | > 500 | 5/50 | – | – | – | – | 5.9 ± 1.7 | 5.2 ± 2.5 | – | 4.5 ± 2.4 | 3/50 | 2/50 | –
10 | O=C1CCCN1c1ccnc(N2CCC(Cc3ccccc3)CC2)n1 [Compound 368] | > 500 | 6/50 | – | 2/50 | – | 3.4 ± 0.3 | 14.4 ± 1.7 | – | – | – | – | – | –
11 | COC(=O)c1ccc(C(=O)N(C)c2ccnc(N3CCC(c4ccccc4)CC3)n2)cc1 [Compound 120] | – | 3/50 | – | 3/50 | – | – | 8.6 ± 5.5 | – | – | 12.6 ± 1.6 | – | – | > 1000
12 | CN(C(=O)c1ccc(C=O)cc1)c1ccnc(N2CCC(c3ccccc3)CC2)n1 [Compound 152] | – | – | – | – | – | 5.2 ± 0.4 | – | – | – | 16.5 ± 1.8 | 2/50 | 3/50 | > 1000
13 | CCOC(=O)C1CCN(c2nccc(N3CCCC3=O)n2)CC1 [Compound 376] | > 500 | 5/50 | – | 5/50 | – | 3.4 ± 0.6 | 4.4 ± 0.8 | 6.0 ± 0.5 | – | – | – | – | –
14 | CC(=O)N(C)c1ccnc(N2CCSCC2)n1 [Compound 216] | – | 3/50 | 3/50 | – | 4/50 | – | – | 4.4 ± 1.3 | 15.8 ± 3.2 | – | – | – | 500 to 1000
15 | CCCCN(CCCC)c1nccc(N2CCCC2=O)n1 [Compound 440] | > 500 | – | 4/50 | – | – | – | 4.3 ± 0.8 | – | – | – | 3/50 | 4/50 | –
16 | CC1CCCCN1c1nccc(N2CCCC2=O)n1 (stereo not shown) [Compound 328] | – | – | – | – | – | 3.9 ± 0.9 | – | 5.6 ± 1.7 | – | – | 3/50 | 3/50 | 250 to 500
